A short description of data set [1]: Excretion in rats (Hafnium in urine, faeces, organs and carcass by ICP-MS). The class given is in vivo. To be noted: i.v. 150 mg Hf/kg. The protocol: An aqueous solution of [Hf3(H−3tacitp)2](in 10 mM trometamol buffer, pH 7.4, 60 mg Hf/mL) was injected in the tail vein of 3 rats (ca. […]) at a dose of 150 mg Hf/kg. Urine samples were collected at the following time intervals: 0-0.5, 0.5-1, 1-3, 3-6, 6-24 h and then daily until day 7. Faeces was collected daily until day 7. On day 7 the animals were sacrificed and the following organs were excised: liver, kidneys, spleen, heart, lung, brain, lymph nodes, muscle, gut, duodenum, skin, bone marrow, bone. The remaining body was freeze dried and ground to obtain a fine powder.
The Hafnium concentration in all specimen was determined after digestion in oxidizing solution (nitric acid and hydrogen peroxide) at elevated pressure and temperature. The measurement of Hafnium was performed by ICP-MS.

Data set [2] is described as follows: Pharmacokinetics in rats (Hafnium blood concentration by ICP-MS, 3-compartment model). Format: in vivo. To be noted: i.v. 150 mg Hf/kg. Here is the method: An aqueous solution of [Hf3(H−3tacitp)2](in 10 mM trometamol buffer, pH 7.4, 60 mg Hf/mL) was injected in the tail vein of 3 rats (ca. 250 g) at a dose of 150 mg Hf/kg. Blood samples were collected via a catheter from the arteria carotis at the following times: 1, 2, 5, 10, 15, 30, 60, 90, 120, 240, 360 and 1440 min after injection.
The Hafnium concentration in all blood samples was determined after digestion in oxidizing solution (nitric acid and hydrogen peroxide) at elevated pressure and temperature. The measurement of Hafnium was performed by ICP-MS.
The pharmacokinetic parameters were obtained for each animal by fitting the blood concentrations to a 3-compartment model, using the software WinNonlin.

Data set [3] can be described thus: Stability of bis azainositol heavy metal complexes under heat sterilization (121° C., 45 min, pH 7.4; HPLC and ICP-OES). To be noted: aqueous buffered solution pH 7.4, 5 mmol/L, 121° C. for 45 min in steam autoclave; absolute stability = HPLC peak area ratio x metal concentration ratio after/before.
Protocol: The stability of bis azainositol heavy metal complexes was determined in aqueous, buffered solution at pH 7.4. The solution containing 5 mmol/L of the compound in a tightly sealed vessel was heated to 121° C. for 45 min in a steam autoclave. The metal concentration of the solution was determined by ICP-OES before and after heat treatment. The integrity of the compound was determined by HPLC analysis before and after heat treatment. Absolute stability was calculated as the ratio of the peak area of the compound after and before the heat treatment multiplied with the ratio of the metal concentration of the solution after and before heat treatment.
Column: Reversed phase C18. […] Solvent B: methanol, HPLC grade Gradient: gradients starting from 100% A and 0% B were used. Flow: 1 mL/min Detector D1: element specific detection by ICP-OES running at the most sensitive emission wavelength of the respective complexed metal. Detector D2: element specific detection by ICP-MS running at the most abundant isotope of the respective complexed metal.
For a further data set, the system named is mice. Briefly: Tolerability in mice (behaviour and survival after 7 d). To be noted: i.v. tail vein. The class given is in vivo. Here is the method: An aqueous solution of Na3[Lu3(H−3tacita)2](in 10 mM trometamol buffer, pH 7.4, 148 mg Lu/mL) was injected in the tail vein of 1-3 mice for each dose group (22-25 g) at increasing doses ranging from 1000 to 3000 mg Lu/kg. The behaviour of the animals and the survival after 7 d was recorded.

For the next data set, the system named is Han-Wistar rat. Briefly: Preclinical X-ray imaging: contrast enhanced CT of an anaesthetized rat. The class given is in vivo. To be noted: i.v. tail vein, 200 mg Lu per kg body weight, 149 mg Lu/mL, 120 kV. The protocol:
The study was performed on a clinical CT unit (Sensation 64, Siemens Medical Solutions, Erlangen, Germany) with an anaesthetized rat. The compound described in example 2 was used as X-ray diagnostic agents in order to perform contrast enhanced CT imaging.
The study was performed on a healthy Han-Wistar rat. Initial anaesthesia was induced by inhalation of 4% Isoflurane (Baxter Deutschland GmbH, Unterschleiβheim, Germany) and maintained by 1.5% Isoflurane. The X-ray diagnostic agent (Example 2) at a concentration of 149 mg Lu/mL was administered intravenously via the tail vein by the help of a dedicated injection pump (flow rate=0.6 mL/s). A dosage of 200 mg Lu per kg body weight was used. In order to simulate a clinical condition the rat was placed within a tissue equivalent phantom (QRM, Möhrendorf, Germany) that mimics the human abdomen in respect of X-ray absorption.
An X-ray projection image (topogram) was acquired to adjust the measurement range to the thoracal region of the animal. The subsequent contrast enhanced measurement was done with following CT parameter settings: X-ray tube voltage=120 kV, mAs-product=160 mAs, tube rotational time=0.5 s, slice thickness=2.4 mm, measurement time=20 s. […]
The signal-time course in the left heart chamber was quantified by a region of interest analysis. […]

As to “Bis{μ3-[(all-cis)-2-{[(carboxy-1κO)ethyl]amino-1κN}-4-{[(carboxy-2κO)ethyl]amino-2κN}-6-{[(carboxy-3κO)ethyl]amino-3κN}cyclohexane-1,3,5-triolate-1κ^2O^1,O^3:2κ^2O^3,O^5:3κ^2O^1,O^5]}trihafnium(IV) [Example 13]”, the “injected Hafnium excreted via the urine” value in data set [1] (after 1 d, cumulative) is recorded as 96%. Besides, in data set [1] (after 7 d), the “Hafnium content of organs other than kidney” value is listed as ≤ 0.01 % of the injected dose/g organ (wet weight); the “injected Hafnium found in all organs and the carcass together” value came out at 0.33%. Further, in data set [1] (after 7 d, cumulative), the “injected Hafnium excreted via the urine” value came out at 97% and the “injected Hafnium found in faeces” value is “About 1.3%”. In addition, the total plasma clearance in data set [2] was 10 ± 0.6 mL/min/kg. In data set [2] (elimination phase), this substance came in with a blood half live of 22.6 ± 3.1 min and a volume of distribution of 0.31±0.01 I/kg.

As for “Bis{μ3-[(all-cis)-2-{[(carboxy-1κO)methyl]amino-1κN}-4-{[(carboxy-2κO)methyl]amino-2κN}-6-{[(carboxy-3κO)methyl]amino-3κN}cyclohexane-1,3,5-triolate-1κ^2O^1,O^3:2κ^2O^3,O^5:3κ^2O^1,O^5]}trihafnium(IV) [Example 1]”, the Stability in data set [3] worked out at 102%.

“Trisodium bis{μ3-(all-cis)-2-{[(carboxy-1κO)ethyl](methyl)-amino-1κN}-4-{[(carboxy-2κO)ethyl](methyl)amino-2κN}-6-{[(carboxy-3κO)ethyl]-(methyl)amino-3κN}cyclohexane-1,3,5-triolate-1κ^2O^1,O^3:2κ^2O^3,O^5:3κ^2O^1,O^5]}triytterbate(II) [Example 23]”: the Stability in data set [3] amounted to 96%.

Turning to “Trisodium bis{μ3-[(all-cis)-2-{[(carboxy-1κO)ethyl](methyl)-amino-1κN}-4-{[(carboxy-2κO)ethyl](methyl)amino-2κN}-6-{[(carboxy-3κO)ethyl]-(methyl)amino-3κN}cyclohexane-1,3,5-triolate-1κ^2O^1,O^3:2κ^2O^3,O^5:3κ^2O^1,O^5]}trilutetate(III) [Example 19]”, the Stability in data set [3] is 90%.

As to “Trisodium bis{μ3-[(all-cis)-2-{[(carboxy-1κO)methyl]amino-1κN}-4-{[(carboxy-2κO)methyl]amino-2κN}-6-{[(carboxy-3κO)methyl]amino-3κN}cyclohexane-1,3,5-triolate-1κ^2O^1,O^3:2κ^2O^3,O^5:3κ^2O^1,O^5]}trilutetate(III) [Example 2]”, the Stability in data set [3] turned out to be 100%. Besides, the “survival after 7 d” value is given as “all animals survived” in the data set on mice (1000 mg Lu/kg), “all animals survived” in the data set with mice (2000 mg Lu/kg), “all animals survived” in the data set on mice (2500 mg Lu/kg) and 2 of 3 animals died in the data set with mice (3000 mg Lu/kg). In addition, the “CT signal change in blood vessels and heart chambers during passage of the diagnostic agent” value in the data set on Han-Wistar rat is recorded as “strong signal increase”.
